Columns and labels:
Chinese sprangletop = assay: Test Example 3: herbicidal effect by foliage application, Wagner pot (Table 18, symbol D); format: in vivo, chinese sprangletop (Leptochloa chinensis)
Procedure, shortened: (§1)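 Plants were sown in alluvial soil held under 0.1–0.5 cm standing water and grown 14 days in a greenhouse at 25–30 °C. An emulsifiable formulation, water-diluted to the set dose, was then sprayed onto the foliage, and effects were scored three weeks later using previously defined criteria.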

barnyard grass [1] = assay: Test Example 4: herbicidal effect by soil treatment (Table 19, symbol H); format: in vivo, barnyard grass (Echinochloa crus-galli); conditions: amount of applied herbicide 320 g/ha
Procedure, shortened: (§2)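 Applied as a water-diluted emulsion, the compound was sprayed onto soil covering newly sown seeds. Evaluation came three weeks after application, in a greenhouse held at 25° C. to 30° C.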

velvetleaf [2] = assay: Test Example 5: herbicidal effect by foliage application, plastic box (Table 20, symbol M); format: in vivo, velvetleaf (Abutilon theophrasti); conditions: evaluated three weeks after application
Procedure, shortened: (§3)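 Sow seeds spot-wise in sterilized diluvial soil; cover with ~1.5 cm soil. Grow 14 days in greenhouse, 25° C. to 30° C. Spray foliage with emulsion diluted to predetermined amount. Rate effect after 3 weeks.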

southern crabgrass [3] = assay: Test Example 5: herbicidal effect by foliage application, plastic box (Table 20, symbol F); format: in vivo, southern crabgrass (Digitaria ciliaris); conditions: evaluated three weeks after application
Procedure, shortened: as §3

oval-leafed pondweed = assay: Test Example 1: herbicidal activity, application before weed generation under submerged conditions (Table 16, symbol C); format: in vivo, oval-leafed pondweed (Monochoria vaginalis)
Procedure, shortened: (§4)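 Alluvial soil was flooded to 4 cm depth, weed seeds were sown mixed and 2.5-leaf rice seedlings were transplanted. On sowing day, the compound's emulsion, diluted in water to a set dose, was applied to the water surface. Plants grew at 25–30 °C and were scored 0–5 after three weeks.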

Italian ryegrass [4] = assay: Test Example 5: herbicidal effect by foliage application, plastic box (Table 20, symbol K); format: in vivo, Italian ryegrass (Lolium multiflorum); conditions: evaluated three weeks after application
Procedure, shortened: as §3

windgrass [5] = assay: Test Example 5: herbicidal effect by foliage application, plastic box (Table 20, symbol L); format: in vivo, windgrass (Apera spica-venti); conditions: evaluated three weeks after application
Procedure, shortened: as §3

velvetleaf [6] = assay: Test Example 4: herbicidal effect by soil treatment (Table 19, symbol M); format: in vivo, velvetleaf (Abutilon theophrasti); conditions: amount of applied herbicide 320 g/ha
Procedure, shortened: as §2

blackgrass [7] = assay: Test Example 4: herbicidal effect by soil treatment (Table 19, symbol J); format: in vivo, blackgrass (Alopecurus myosuroides); conditions: amount of applied herbicide 320 g/ha
Procedure, shortened: as §2

blackgrass [8] = assay: Test Example 5: herbicidal effect by foliage application, plastic box (Table 20, symbol J); format: in vivo, blackgrass (Alopecurus myosuroides); conditions: evaluated three weeks after application
Procedure, shortened: as §3

late watergrass = assay: Test Example 1: herbicidal activity, application before weed generation under submerged conditions (Table 16, symbol A); format: in vivo, late watergrass (Echinochloa oryzicola)
Procedure, shortened: as §4

barnyard grass [9] = assay: Test Example 5: herbicidal effect by foliage application, plastic box (Table 20, symbol H); format: in vivo, barnyard grass (Echinochloa crus-galli); conditions: evaluated three weeks after application
Procedure, shortened: as §3

lambsquarters [10] = assay: Test Example 4: herbicidal effect by soil treatment (Table 19, symbol O); format: in vivo, lambsquarters (Chenopodium album); conditions: amount of applied herbicide 320 g/ha
Procedure, shortened: as §2

Japanese bulrush = assay: Test Example 1: herbicidal activity, application before weed generation under submerged conditions (Table 16, symbol B); format: in vivo, Japanese bulrush (Schoenoplectus juncoides)
Procedure, shortened: as §4

rice flat sedge = assay: Test Example 3: herbicidal effect by foliage application, Wagner pot (Table 18, symbol E); format: in vivo, rice flat sedge (Cyperus iria)
Procedure, shortened: as §1

southern crabgrass [11] = assay: Test Example 4: herbicidal effect by soil treatment (Table 19, symbol F); format: in vivo, southern crabgrass (Digitaria ciliaris); conditions: amount of applied herbicide 320 g/ha
Procedure, shortened: as §2

persian speedwell [12] = assay: Test Example 4: herbicidal effect by soil treatment (Table 19, symbol R); format: in vivo, Persian speedwell (Veronica persica); conditions: amount of applied herbicide 320 g/ha
Procedure, shortened: as §2

chickweed [13] = assay: Test Example 5: herbicidal effect by foliage application, plastic box (Table 20, symbol P); format: in vivo, common chickweed (Stellaria media); conditions: evaluated three weeks after application
Procedure, shortened: as §3

persian speedwell [14] = assay: Test Example 5: herbicidal effect by foliage application, plastic box (Table 20, symbol R); format: in vivo, Persian speedwell (Veronica persica); conditions: evaluated three weeks after application
Procedure, shortened: as §3

green foxtail [15] = assay: Test Example 4: herbicidal effect by soil treatment (Table 19, symbol G); format: in vivo, green foxtail (Setaria viridis); conditions: amount of applied herbicide 320 g/ha
Procedure, shortened: as §2

windgrass [16] = assay: Test Example 4: herbicidal effect by soil treatment (Table 19, symbol L); format: in vivo, windgrass (Apera spica-venti); conditions: amount of applied herbicide 320 g/ha
Procedure, shortened: as §2

Italian ryegrass [17] = assay: Test Example 4: herbicidal effect by soil treatment (Table 19, symbol K); format: in vivo, Italian ryegrass (Lolium multiflorum); conditions: amount of applied herbicide 320 g/ha
Procedure, shortened: as §2

lambsquarters [18] = assay: Test Example 5: herbicidal effect by foliage application, plastic box (Table 20, symbol O); format: in vivo, lambsquarters (Chenopodium album); conditions: evaluated three weeks after application
Procedure, shortened: as §3

wild oat [19] = assay: Test Example 4: herbicidal effect by soil treatment (Table 19, symbol I); format: in vivo, wild oat (Avena fatua); conditions: amount of applied herbicide 320 g/ha
Procedure, shortened: as §2

barnyard grass [20] = assay: Test Example 3: herbicidal effect by foliage application, Wagner pot (Table 18, symbol H); format: in vivo, barnyard grass (Echinochloa crus-galli)
Procedure, shortened: as §1

chickweed [21] = assay: Test Example 4: herbicidal effect by soil treatment (Table 19, symbol P); format: in vivo, common chickweed (Stellaria media); conditions: amount of applied herbicide 320 g/ha
Procedure, shortened: as §2

green foxtail [22] = assay: Test Example 5: herbicidal effect by foliage application, plastic box (Table 20, symbol G); format: in vivo, green foxtail (Setaria viridis); conditions: evaluated three weeks after application
Procedure, shortened: as §3

redroot pigweed [23] = assay: Test Example 5: herbicidal effect by foliage application, plastic box (Table 20, symbol N); format: in vivo, redroot pigweed (Amaranthus retroflexus); conditions: evaluated three weeks after application
Procedure, shortened: as §3

wild oat [24] = assay: Test Example 5: herbicidal effect by foliage application, plastic box (Table 20, symbol I); format: in vivo, wild oat (Avena fatua); conditions: evaluated three weeks after application
Procedure, shortened: as §3

redroot pigweed [25] = assay: Test Example 4: herbicidal effect by soil treatment (Table 19, symbol N); format: in vivo, redroot pigweed (Amaranthus retroflexus); conditions: amount of applied herbicide 320 g/ha
Procedure, shortened: as §2

[26] = amount of applied herbicide 320 g/ha, foliage application after 14-day growth
[27] = amount of applied herbicide 320 g/ha

CCCC(=O)Oc1c(C)nn(C)c(=O)c1-c1c(-c2ccc(OC)cc2)sc2cc(F)c(F)cc12 [5-015]
herbicidal effect on Chinese sprangletop (D) (Chinese sprangletop; 320 g/ha): 2 (Herbicidal rate of 20% or more and less than 40%)
H: barnyard grass, herbicidal effect grade (barnyard grass [1]): 0 (Herbicidal rate of 5% or less (almost no effect))
Herbicidal effect by foliage application, M: velvetleaf (velvetleaf [2]; [26]): 4 (Herbicidal rate of 70% or more and less than 90%)
Herbicidal effect by foliage application, F: southern crabgrass (southern crabgrass [3]; [26]): 0 (Herbicidal rate of 5% or less (almost no effect))
Herbicidal effect, C: oval-leafed pondweed (oval-leafed pondweed; [27]): 0 (Herbicidal rate of 5% or less (almost no effect))
Herbicidal effect by foliage application, K: Italian ryegrass (Italian ryegrass [4]; [26]): 0 (Herbicidal rate of 5% or less (almost no effect))
Herbicidal effect by foliage application, L: windgrass (windgrass [5]; [26]): 0 (Herbicidal rate of 5% or less (almost no effect))
M: velvetleaf, herbicidal effect grade (velvetleaf [6]): 0 (Herbicidal rate of 5% or less (almost no effect))
J: blackgrass, herbicidal effect grade (blackgrass [7]): 0 (Herbicidal rate of 5% or less (almost no effect))
Herbicidal effect by foliage application, J: blackgrass (blackgrass [8]; [26]): 0 (Herbicidal rate of 5% or less (almost no effect))
Herbicidal effect, A: late watergrass (late watergrass; [27]): 3 (Herbicidal rate of 40% or more and less than 70%)
Herbicidal effect by foliage application, H: barnyard grass (barnyard grass [9]; [26]): 0 (Herbicidal rate of 5% or less (almost no effect))
O: lambsquarters, herbicidal effect grade (lambsquarters [10]): 4 (Herbicidal rate of 70% or more and less than 90%)
Herbicidal effect, B: Japanese bulrush (Japanese bulrush; [27]): 0 (Herbicidal rate of 5% or less (almost no effect))
herbicidal effect on rice flat sedge (E) (rice flat sedge; 320 g/ha): 3 (Herbicidal rate of 40% or more and less than 70%)
F: southern crabgrass, herbicidal effect grade (southern crabgrass [11]): 0 (Herbicidal rate of 5% or less (almost no effect))
R: persian speedwell, herbicidal effect grade (persian speedwell [12]): 5 (Herbicidal rate of 90% or more (almost completely withered))
Herbicidal effect by foliage application, P: chickweed (chickweed [13]; [26]): 5 (Herbicidal rate of 90% or more (almost completely withered))
Herbicidal effect by foliage application, R: persian speedwell (persian speedwell [14]; [26]): 5 (Herbicidal rate of 90% or more (almost completely withered))
G: green foxtail, herbicidal effect grade (green foxtail [15]): 0 (Herbicidal rate of 5% or less (almost no effect))
L: windgrass, herbicidal effect grade (windgrass [16]): 0 (Herbicidal rate of 5% or less (almost no effect))
K: Italian ryegrass, herbicidal effect grade (Italian ryegrass [17]): 0 (Herbicidal rate of 5% or less (almost no effect))
Herbicidal effect by foliage application, O: lambsquarters (lambsquarters [18]; [26]): 5 (Herbicidal rate of 90% or more (almost completely withered))
I: wild oat, herbicidal effect grade (wild oat [19]): 0 (Herbicidal rate of 5% or less (almost no effect))
herbicidal effect on barnyard grass (H) (barnyard grass [20]; 320 g/ha): 2 (Herbicidal rate of 20% or more and less than 40%)
P: chickweed, herbicidal effect grade (chickweed [21]): 3 (Herbicidal rate of 40% or more and less than 70%)
Herbicidal effect by foliage application, G: green foxtail (green foxtail [22]; [26]): 0 (Herbicidal rate of 5% or less (almost no effect))
Herbicidal effect by foliage application, N: redroot pigweed (redroot pigweed [23]; [26]): 5 (Herbicidal rate of 90% or more (almost completely withered))
Herbicidal effect by foliage application, I: wild oat (wild oat [24]; [26]): 0 (Herbicidal rate of 5% or less (almost no effect))
N: redroot pigweed, herbicidal effect grade (redroot pigweed [25]): 4 (Herbicidal rate of 70% or more and less than 90%)

CCCC(=O)Oc1c(C)nn(C)c(=O)c1-c1c(-c2cccc(OC(C)(C)C)c2)sc2ccc(F)cc12 [2-224]
herbicidal effect on D: Chinese sprangletop (Chinese sprangletop; [27]): 4 (Herbicidal rate of 70% or more and less than 90%)
herbicidal effect on H: barnyard grass (barnyard grass [1]): 0 (Herbicidal rate of 5% or less (almost no effect))
herbicidal effect on M: velvetleaf (criteria 0-5) (velvetleaf [2]; foliage application, 320 g/ha): 3 (Herbicidal rate of 40% or more and less than 70%)
herbicidal effect on F: southern crabgrass (criteria 0-5) (southern crabgrass [3]; foliage application, 320 g/ha): 0 (Herbicidal rate of 5% or less (almost no effect))
Herbicidal effect on C: oval-leafed pondweed (grade 0-5) (oval-leafed pondweed; 320 g/ha applied herbicide): 0 (Herbicidal rate of 5% or less (almost no effect))
herbicidal effect on K: Italian ryegrass (criteria 0-5) (Italian ryegrass [4]; foliage application, 320 g/ha): 0 (Herbicidal rate of 5% or less (almost no effect))
herbicidal effect on L: windgrass (criteria 0-5) (windgrass [5]; foliage application, 320 g/ha): 0 (Herbicidal rate of 5% or less (almost no effect))
herbicidal effect on M: velvetleaf (velvetleaf [6]): 0 (Herbicidal rate of 5% or less (almost no effect))
herbicidal effect on J: blackgrass (blackgrass [7]): 0 (Herbicidal rate of 5% or less (almost no effect))
herbicidal effect on J: blackgrass (criteria 0-5) (blackgrass [8]; foliage application, 320 g/ha): 0 (Herbicidal rate of 5% or less (almost no effect))
Herbicidal effect on A: late watergrass (grade 0-5) (late watergrass; 320 g/ha applied herbicide): 5 (Herbicidal rate of 90% or more (almost completely withered))
herbicidal effect on H: barnyard grass (criteria 0-5) (barnyard grass [9]; foliage application, 320 g/ha): 3 (Herbicidal rate of 40% or more and less than 70%)
herbicidal effect on O: lambsquarters (lambsquarters [10]): 0 (Herbicidal rate of 5% or less (almost no effect))
Herbicidal effect on B: Japanese bulrush (grade 0-5) (Japanese bulrush; 320 g/ha applied herbicide): 0 (Herbicidal rate of 5% or less (almost no effect))
herbicidal effect on E: rice flat sedge (rice flat sedge; [27]): 3 (Herbicidal rate of 40% or more and less than 70%)
herbicidal effect on F: southern crabgrass (southern crabgrass [11]): 0 (Herbicidal rate of 5% or less (almost no effect))
herbicidal effect on R: persian speedwell (persian speedwell [12]): 4 (Herbicidal rate of 70% or more and less than 90%)
herbicidal effect on P: chickweed (criteria 0-5) (chickweed [13]; foliage application, 320 g/ha): 5 (Herbicidal rate of 90% or more (almost completely withered))
herbicidal effect on R: persian speedwell (criteria 0-5) (persian speedwell [14]; foliage application, 320 g/ha): 5 (Herbicidal rate of 90% or more (almost completely withered))
herbicidal effect on G: green foxtail (green foxtail [15]): 0 (Herbicidal rate of 5% or less (almost no effect))
herbicidal effect on L: windgrass (windgrass [16]): 0 (Herbicidal rate of 5% or less (almost no effect))
herbicidal effect on K: Italian ryegrass (Italian ryegrass [17]): 0 (Herbicidal rate of 5% or less (almost no effect))
herbicidal effect on O: lambsquarters (criteria 0-5) (lambsquarters [18]; foliage application, 320 g/ha): 3 (Herbicidal rate of 40% or more and less than 70%)
herbicidal effect on I: wild oat (wild oat [19]): 0 (Herbicidal rate of 5% or less (almost no effect))
herbicidal effect on H: barnyard grass (barnyard grass [20]; [27]): 4 (Herbicidal rate of 70% or more and less than 90%)
herbicidal effect on P: chickweed (chickweed [21]): 0 (Herbicidal rate of 5% or less (almost no effect))
herbicidal effect on G: green foxtail (criteria 0-5) (green foxtail [22]; foliage application, 320 g/ha): 1 (Herbicidal rate of 5% or more and less than 20%)
herbicidal effect on N: redroot pigweed (criteria 0-5) (redroot pigweed [23]; foliage application, 320 g/ha): 2 (Herbicidal rate of 20% or more and less than 40%)
herbicidal effect on I: wild oat (criteria 0-5) (wild oat [24]; foliage application, 320 g/ha): 0 (Herbicidal rate of 5% or less (almost no effect))
herbicidal effect on N: redroot pigweed (redroot pigweed [25]): 0 (Herbicidal rate of 5% or less (almost no effect))

From patent US20230085307A1, “PYRIDAZINONE COMPOUND AND HERBICIDE” (NISSAN CHEMICAL CORPORATION, priority 2019, published 2023)
